Measured values as given in US20100041089A1, “IMPROVED METHOD FOR DETECTING CHEMICAL […]” (priority 2006, published 2010).

System: yeast genes (expressed mRNA)
Experiment: DNA chip measurement of expressed mRNA of yeast genes after culture with a toxic chemical substance
Type: cell-based, Saccharomyces cerevisiae S288C
Details: for level of expressed mRNA in the presence of chemical substance / level in the absence of chemical substance: cultured two hours with the chemical substance; for The level of expressed mRNA in the presence of chemical substance/The level of expressed mRNA in the absence of chemical substance: cultured two hours with substance
Summary of the method: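 S. cerevisiae S288C grown at 25 °C in YPD, exposed in log phase for 2 h to a toxicant at growth-inhibiting, non-lethal concentration. Cy3/Cy5-labelled cDNA from poly(A) mRNA hybridized to whole-genome chip at 65 °C >12 h. Ratio to untreated control, ≥2 significant.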

Manganese ethylenebis(dithiocarbamate) [(8)]
1.1: The level of expressed mRNA in the presence of chemical substance/The level of expressed mRNA in the absence of chemical substance, yeast gene YDL067C (gene YDL067C (mitochondria-located protein gene), yeast cultured two hours with chemical substance, DNA chip fluorescence ratio to control) | The level of expressed mRNA in the presence of chemical substance/The level of expressed mRNA in the absence of chemical substance, yeast gene YDL215C (gene YDL215C, Metabolism protein genes, DNA chip fluorescence ratio) | The level of expressed mRNA in the presence of chemical substance/The level of expressed mRNA in the absence of chemical substance, yeast gene YJL070C (gene YJL070C, Metabolism protein genes, DNA chip fluorescence ratio) | The level of expressed mRNA in the presence of chemical substance/The level of expressed mRNA in the absence of chemical substance, yeast gene YMR278W (gene YMR278W, Metabolism protein genes, DNA chip fluorescence ratio) | The level of expressed mRNA in the presence of chemical substance/The level of expressed mRNA in the absence of chemical substance, yeast gene YOR363C (gene YOR363C, Metabolism protein genes, DNA chip fluorescence ratio) | The level of expressed mRNA in the presence of chemical substance/The level of expressed mRNA in the absence of chemical substance, yeast gene YPL040C (gene YPL040C (mitochondria-located protein gene), yeast cultured two hours with chemical substance, DNA chip fluorescence ratio to control) | level of expressed mRNA in the presence of chemical substance / level in the absence of chemical substance (yeast gene YAR064W) | level of expressed mRNA in the presence of chemical substance / level in the absence of chemical substance (yeast gene YBR012C) | The level of expressed mRNA in the presence of chemical substance/The level of expressed mRNA in the absence of chemical substance (yeast gene YDL204W)
0.9: The level of expressed mRNA in the presence of chemical substance/The level of expressed mRNA in the absence of chemical substance, yeast gene YKR009C (gene YKR009C, Metabolism protein genes, DNA chip fluorescence ratio) | The level of expressed mRNA in the presence of chemical substance/The level of expressed mRNA in the absence of chemical substance, yeast gene YNR072W (gene YNR072W, Metabolism protein genes, DNA chip fluorescence ratio) | The level of expressed mRNA in the presence of chemical substance/The level of expressed mRNA in the absence of chemical substance, yeast gene YOR180C (gene YOR180C, Metabolism protein genes, DNA chip fluorescence ratio)
1.5: The level of expressed mRNA in the presence of chemical substance/The level of expressed mRNA in the absence of chemical substance, yeast gene YDR297W (gene YDR297W, Metabolism protein genes, DNA chip fluorescence ratio) | The level of expressed mRNA in the presence of chemical substance/The level of expressed mRNA in the absence of chemical substance, yeast gene YMR267W (gene YMR267W (mitochondria-located protein gene), yeast cultured two hours with chemical substance, DNA chip fluorescence ratio to control) | The level of expressed mRNA in the presence of chemical substance/The level of expressed mRNA in the absence of chemical substance, yeast gene YMR267W (gene YMR267W, Metabolism protein genes, DNA chip fluorescence ratio)
1.4: The level of expressed mRNA in the presence of chemical substance/The level of expressed mRNA in the absence of chemical substance, yeast gene YMR023C (gene YMR023C (mitochondria-located protein gene), yeast cultured two hours with chemical substance, DNA chip fluorescence ratio to control)
0.8: The level of expressed mRNA in the presence of chemical substance/The level of expressed mRNA in the absence of chemical substance, yeast gene YGR062C (gene YGR062C (mitochondria-located protein gene), yeast cultured two hours with chemical substance, DNA chip fluorescence ratio to control) | The level of expressed mRNA in the presence of chemical substance/The level of expressed mRNA in the absence of chemical substance, yeast gene YOR316C (gene YOR316C (mitochondria-located protein gene), yeast cultured two hours with chemical substance, DNA chip fluorescence ratio to control) | The level of expressed mRNA in the presence of chemical substance/The level of expressed mRNA in the absence of chemical substance (yeast gene YAL053W) | level of expressed mRNA in the presence of chemical substance / level in the absence of chemical substance (yeast gene YAR047C) | level of expressed mRNA in the presence of chemical substance / level in the absence of chemical substance (yeast gene YBR162C) | The level of expressed mRNA in the presence of chemical substance/The level of expressed mRNA in the absence of chemical substance (yeast gene YDL072C) | level of expressed mRNA in the presence of chemical substance / level in the absence of chemical substance (yeast gene YDR090C)
2.6: The level of expressed mRNA in the presence of chemical substance/The level of expressed mRNA in the absence of chemical substance, yeast gene YDR079W (gene YDR079W (mitochondria-located protein gene), yeast cultured two hours with chemical substance, DNA chip fluorescence ratio to control)
1.0: The level of expressed mRNA in the presence of chemical substance/The level of expressed mRNA in the absence of chemical substance, yeast gene YDL078C (gene YDL078C, Metabolism protein genes, DNA chip fluorescence ratio) | The level of expressed mRNA in the presence of chemical substance/The level of expressed mRNA in the absence of chemical substance, yeast gene YJL180C (gene YJL180C (mitochondria-located protein gene), yeast cultured two hours with chemical substance, DNA chip fluorescence ratio to control) | The level of expressed mRNA in the presence of chemical substance/The level of expressed mRNA in the absence of chemical substance, yeast gene YLR375W (gene YLR375W, Metabolism protein genes, DNA chip fluorescence ratio) | The level of expressed mRNA in the presence of chemical substance/The level of expressed mRNA in the absence of chemical substance, yeast gene YMR293C (gene YMR293C, Metabolism protein genes, DNA chip fluorescence ratio) | The level of expressed mRNA in the presence of chemical substance/The level of expressed mRNA in the absence of chemical substance, yeast gene YNL073W (gene YNL073W (mitochondria-located protein gene), yeast cultured two hours with chemical substance, DNA chip fluorescence ratio to control) | The level of expressed mRNA in the presence of chemical substance/The level of expressed mRNA in the absence of chemical substance, yeast gene YOL096C (gene YOL096C, Metabolism protein genes, DNA chip fluorescence ratio) | level of expressed mRNA in the presence of chemical substance / level in the absence of chemical substance (yeast gene YBR287W) | level of expressed mRNA in the presence of chemical substance / level in the absence of chemical substance (yeast gene YCL056C) | level of expressed mRNA in the presence of chemical substance / level in the absence of chemical substance (yeast gene YCR007C)
1.2: The level of expressed mRNA in the presence of chemical substance/The level of expressed mRNA in the absence of chemical substance, yeast gene YLR295C (gene YLR295C (mitochondria-located protein gene), yeast cultured two hours with chemical substance, DNA chip fluorescence ratio to control) | The level of expressed mRNA in the presence of chemical substance/The level of expressed mRNA in the absence of chemical substance, yeast gene YLR351C (gene YLR351C, Metabolism protein genes, DNA chip fluorescence ratio) | The level of expressed mRNA in the presence of chemical substance/The level of expressed mRNA in the absence of chemical substance (yeast gene YBL048W) | level of expressed mRNA in the presence of chemical substance / level in the absence of chemical substance (yeast gene YBR066C) | level of expressed mRNA in the presence of chemical substance / level in the absence of chemical substance (yeast gene YBR124W)
1.6: level of expressed mRNA in the presence of chemical substance / level in the absence of chemical substance (yeast gene YAL018C)
0.5: The level of expressed mRNA in the presence of chemical substance/The level of expressed mRNA in the absence of chemical substance, yeast gene YBR298C (gene YBR298C, Metabolism protein genes, DNA chip fluorescence ratio)
0.7: The level of expressed mRNA in the presence of chemical substance/The level of expressed mRNA in the absence of chemical substance, yeast gene YBR036C (gene YBR036C, Metabolism protein genes, DNA chip fluorescence ratio) | The level of expressed mRNA in the presence of chemical substance/The level of expressed mRNA in the absence of chemical substance, yeast gene YDR387C (gene YDR387C, Metabolism protein genes, DNA chip fluorescence ratio) | The level of expressed mRNA in the presence of chemical substance/The level of expressed mRNA in the absence of chemical substance, yeast gene YPR184W (gene YPR184W, Metabolism protein genes, DNA chip fluorescence ratio) | level of expressed mRNA in the presence of chemical substance / level in the absence of chemical substance (yeast gene YBL044W) | level of expressed mRNA in the presence of chemical substance / level in the absence of chemical substance (yeast gene YDL046W) | The level of expressed mRNA in the presence of chemical substance/The level of expressed mRNA in the absence of chemical substance (yeast gene YDL222C)
1.9: The level of expressed mRNA in the presence of chemical substance/The level of expressed mRNA in the absence of chemical substance (yeast gene YBL107C)
1.3: The level of expressed mRNA in the presence of chemical substance/The level of expressed mRNA in the absence of chemical substance, yeast gene YGL035C (gene YGL035C, Metabolism protein genes, DNA chip fluorescence ratio) | The level of expressed mRNA in the presence of chemical substance/The level of expressed mRNA in the absence of chemical substance, yeast gene YGR287C (gene YGR287C, Metabolism protein genes, DNA chip fluorescence ratio) | The level of expressed mRNA in the presence of chemical substance/The level of expressed mRNA in the absence of chemical substance, yeast gene YJL096W (gene YJL096W (mitochondria-located protein gene), yeast cultured two hours with chemical substance, DNA chip fluorescence ratio to control) | The level of expressed mRNA in the presence of chemical substance/The level of expressed mRNA in the absence of chemical substance, yeast gene YPL134C (gene YPL134C (mitochondria-located protein gene), yeast cultured two hours with chemical substance, DNA chip fluorescence ratio to control)
0.6: level of expressed mRNA in the presence of chemical substance / level in the absence of chemical substance (yeast gene YCL042W)
